Reference: US20200277571A1, “METHOD FOR AMPLIFYING CONE PHOTORECEPTORS OR ROD PHOTORECEPTORS USING DORSALIZATION SIGNAL TRANSMITTER OR VENTRALIZATION SIGNAL TRANSMITTER” (RIKEN, priority 2017, published 2020)

Assays:
[1] = system: OTX2-positive and OC2-positive cells in retinal tissue produced from human ES cells; assay: Immunostaining for OTX2 and OC2 of retinal tissue, day 70-75, image analysis (Image J); assay type: cell-based; details: for number of OTX2-positive cells versus Control (NUC) group / OC2-positive cells: 0.15 nM BMP4, 500 nM Cyclopamine-KAAD; for number of OTX2-positive cells versus Control (NUC) group: 100 nM LDN193189, 100 nM SAG from day 22; for OC2-positive cells: 100 nM LDN193189 or 100 nM SAG from day 22, Control (NUC) about 26.4%; for expression level (intensity of immunostained fluorescence) of OC2 as compared to the Control (NUC) group, on average: 0.15 nM BMP4 or 500 nM Cyclopamine-KAAD from day 22
From the text: Here, the proportion of the number of OC2-positive cells contained in the neural retinal tissue can be determined by those of ordinary skill in the art by performing conventionally possible immunostaining and the like by using an anti OC2 antibody, DAPI and the like, measuring the number of OC2-positive cells, the number of DAPI-positive cells and the like, and identifying the ratio thereof contained in a neural retinal tissue. The expression level of OC2 protein can be determined by those of ordinary skill in the art by performing conventionally possible immunostaining and the like by using an anti OC2 antibody, DAPI and the like, and analyzing the region stained by an anti OC2 antibody by using image analysis software such as Image J and the like to identify the signal intensity of OC2-positive cells. Alternatively, the proportion of the number of OC2-positive cells contained in a neural retinal tissue and/or the OC2 protein expression level of OC2-positive cell may be identified by analysis using conventional flow cytometry using an antibody against OC2 protein.
A cell aggregate containing a retinal tissue was prepared by the method described in “Kuwahara et al. Nat Commun 2015, 19(6), 6286-” after modification in part. That is, the aforementioned cultured ES cells were individually dispersed using TrypLE Express (Invitrogen), and the individually dispersed human ES cells were suspended in 100 μL of a serum-free medium in a cell non-adhesive 96 well plate (SUMILON spheroid plate, SUMITOMO BAKELITE CO., LTD.) at 9×10^3 cells per well to allow rapid formation of aggregates, after which they were cultured at 37° C., 5% CO2. As the serum-free medium therefor, a serum-free medium obtained by adding 10% KSR, 450 μM 1-monothioglycerol, 1× Chemically defined lipid concentrate, 5 mg/mL BSA, 20 μM Y27632 to a 1:1 mixture of F-12 medium and IMDM medium was used. At 6 days after the start of suspension culture, BMP4 at a final concentration of 1.5 nM was added and suspension culture was continued. A half amount of the culture medium in the well was exchanged with the above-mentioned medium not supplemented with a BMP signal transduction pathway agonist every 3 or 4 days. A cell aggregate containing a retinal tissue at day 18 from the start of suspension culture was cultured in suspension in a serum-free medium (DMEM/F12 medium supplemented with 1% N2 supplement) containing 3 μM CHIR99021 and 5 μM SU5402 for 4 days, namely, up to day 22 from the start of suspension culture. Thereafter, suspension culture of the cell aggregate containing the retinal tissue was continued until it was appropriately used for analysis and the like. As the culture medium during this period, serum-containing media shown in the following to [3] were used and the cell aggregate was cultured under 5% CO2 conditions.
[1] day 22 to day 38 from the start of suspension culture; DMEM/F12 medium supplemented with 10% fetal calf serum, 1% N2 supplement, and 100 μM taurine. day 38 to day 60 from the start of suspension culture; a 1:3 mixed medium of DMEM/F12 medium supplemented with 10% fetal calf serum, 1% N2 supplement, and 100 μM taurine, and Neurobasal medium supplemented with 10% fetal calf serum, 2% B27 supplement, and 100 μM taurine. after day 60 from the start of suspension culture; Neurobasal medium supplemented with 10% fetal calf serum, 2% B27 supplement, and 100 μM taurine.
[1] Control group (FIG. 2a, f, k, p); according to the method described in Example 1, culture was performed up to day 70 or day 75 from the start of suspension culture and without addition. [2]+BMP group (FIG. 2b, g, 1, q); 0.15 nM BMP4 was added from day 22 from the start of suspension culture to completion of suspension culture, and cultured up to day 70 or day 75 from the start of suspension culture. […]

ALDH1A1 = assay: Immunostaining for ALDH1A1 (dorsal marker) of retinal tissue; assay type: cell-based, human
Protocol: (§1) [1] Control group (FIG. 2a, f, k, p); according to the method described in Example 1, culture was performed up to day 70 or day 75 from the start of suspension culture and without addition. [2]+BMP group (FIG. 2b, g, 1, q); 0.15 nM BMP4 was added from day 22 from the start of suspension culture to completion of suspension culture, and cultured up to day 70 or day 75 from the start of suspension culture. [3]+Cyclopamine-KAAD group (FIG. 2c, h, m, r); 500 nM Cyclopamine-KAAD was added from day 22 from the start of suspension culture to completion of the suspension culture, and cultured up to day 70 or day 75 from the start of suspension culture. [4]+LDN193189 group (FIG. 2d, i, n, s); 100 nM LDN193189 was added from day 22 from the start of suspension culture to completion of the suspension culture, and cultured up to day 70 or day 75 from the start of suspension culture. [5]+SAG group (FIG. 2e, j, o, t); 100 nM SAG was added from day 22 from the start of suspension culture to completion of the suspension culture, and cultured up to day 70 or day 75 from the start of suspension culture.
The retinal tissue produced by the methods described in Example 2 and Example 7 was fixed with 4% para-formaldehyde, cryosections were prepared, and immunostaining for ALDH1A1 was performed. The retinal tissue used was one on day 75 from the start of suspension culture similar to Example 2 and one on about day 40 from the start of suspension culture and cultured under the same conditions except the culture period as in Example 7.

ALDH1A3 = assay: Immunostaining for ALDH1A3 (ventral marker) of retinal tissue; assay type: cell-based, human; details: day 75, 0.15 nM BMP4, 100 nM LDN193189, 100 nM SAG from day 22
Protocol: as §1
The retinal tissues produced by the method described in Example 2 were fixed with 4% para-formaldehyde, cryosections were prepared, and immunostaining for GFP (fluorescence of GFP variant incorporated in CRX gene locus can be identified. That is, cells similar to CRX-positive cell can be identified), ALDH1A3, or DAPI staining for staining the nucleus was performed. The retinal tissue used was one on day 75 from the start of suspension culture similar to Example 2. As a result, an ALDH1A3-positive region considered to be a ventral region in the Control (NUC) group was found in the retinal tissue, and in such region, particularly GFP-positive cells, i.e., CRX::Venus-positive cells expressing CRX, were less. In +BMP4 group, overall expression of ALDH1A3 was suppressed as compared to the Control (NUC) group, and CRX::Venus-positive cells increased along therewith.

[2] = about day 40 from start of suspension culture, 0.15 nM BMP4, 100 nM LDN193189, 100 nM SAG from day 22

Compound | number of OTX2-positive cells versus Control (NUC) group [1] | OC2-positive cells [1] | expression level (intensity of immunostained fluorescence) of OC2 as compared to the Control (NUC) group, on average [1] | clear ALDH1A1-positive region (dorsal region) (ALDH1A1; [2]) | ALDH1A3 expression / ALDH1A3-positive region versus Control (NUC) group (ALDH1A3) | clear ALDH1A1-positive region (dorsal region) (ALDH1A1; day 75 from start of suspension culture, 0.15 nM BMP4 from day 22)
CC1=C2C[C@H]3[C@@H](CC=C4CC(=O)CC[C@@]43C)[C@@H]2CC[C@]12O[C@@H]1C[C@H](C)CN(CCNC(=O)CCCCCNC(=O)CCc3ccccc3)[C@H]1[C@H]2C [Cyclopamine-KAAD] | higher | ~16.7% | about 64% | – | – | –
c1ccc2c(-c3cnn4cc(-c5ccc(N6CCNCC6)cc5)cnc34)ccnc2c1 [LDN193189, 4-[6-(4-piperazin-1-ylphenyl)pyrazolo[1,5-a]pyrimidin-3-yl]quinoline] | lower | ~35.1% | – | not found | increased | –
BMP4: BMP protein; BMP signal transduction pathway agonist used as dorsalization signal transmitter | higher | about 16.0% | about 36% | found only in +BMP4 group | suppressed | not observed
CNC1CCC(N(Cc2cccc(-c3ccncc3)c2)C(=O)c2sc3ccccc3c2Cl)CC1 (centres unmarked) [SAG] | lower | ~27.3% | – | not found | increased | –
